Among the data in ChEMBL document CHEMBL1128806, “Phosphodiesterase type IV (PDE IV) inhibition. Synthesis and evaluation of a series of 1,3,4-trisubstituted pyrrolidines” (Bioorg Med Chem Lett, 1995) are Ki and IC50 values, retold here.

Experiment [1] deals with T1, 3',5'-cyclic-AMP phosphodiesterase 4B (Homo sapiens, UniProt Q07343). As to the kind of experiment: Ability to inhibit the catalytic activity of human Phosphodiesterase 4B (PDE IVB).
A short description of experiment [2]: Inhibition of TNF-alpha secretion from LPS-stimulated human monocytes. The class given is functional.
Experiment [3] deals with T1, 3',5'-cyclic-AMP phosphodiesterase 4B. The experiment can be described thus: Inhibition of rolipram binding to Phosphodiesterase 4B.

T1 sequence (Q07343 whole entry): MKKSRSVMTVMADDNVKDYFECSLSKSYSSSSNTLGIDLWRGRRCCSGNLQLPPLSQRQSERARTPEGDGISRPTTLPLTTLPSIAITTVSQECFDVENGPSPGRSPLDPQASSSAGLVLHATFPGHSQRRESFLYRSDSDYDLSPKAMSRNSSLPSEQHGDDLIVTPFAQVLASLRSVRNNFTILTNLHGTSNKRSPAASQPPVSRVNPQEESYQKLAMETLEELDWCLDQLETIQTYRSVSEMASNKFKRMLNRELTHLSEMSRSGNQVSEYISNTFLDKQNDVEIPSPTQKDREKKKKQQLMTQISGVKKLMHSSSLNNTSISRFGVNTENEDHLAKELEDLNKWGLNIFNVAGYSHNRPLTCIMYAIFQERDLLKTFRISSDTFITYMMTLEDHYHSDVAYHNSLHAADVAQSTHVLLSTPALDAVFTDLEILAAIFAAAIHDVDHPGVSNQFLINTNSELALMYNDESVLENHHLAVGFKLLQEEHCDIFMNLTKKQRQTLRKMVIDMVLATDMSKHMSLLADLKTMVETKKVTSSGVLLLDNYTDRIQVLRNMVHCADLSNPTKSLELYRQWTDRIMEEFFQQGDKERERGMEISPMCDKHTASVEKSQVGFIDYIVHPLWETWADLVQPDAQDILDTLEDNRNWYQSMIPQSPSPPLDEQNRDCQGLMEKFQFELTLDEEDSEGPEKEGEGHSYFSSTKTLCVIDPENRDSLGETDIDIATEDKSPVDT

In general, Ki refers to a measure of affinity in units of concentration, obtained from inhibition or displacement. Higher therefore signals weaker binding. In turn, `COC(=O)N1C[C@@H](C#N)[C@H](c2ccc(OC)c(OC3CCCC3)c2)C1` displayed a Ki in experiment [1] of 80 nM.

For the molecule `COC(=O)N1C[C@@H](C(=O)OC(C)C)[C@H](c2ccc(OC)c(OC3CCCC3)c2)C1`, in experiment [1], affinity was put at a Ki of 2290 nM.

Molecule `COC(=O)N1C[C@@H]([N+](=O)[O-])[C@H](c2ccc(OC)c(OC3CCCC3)c2)C1` showed a Ki in experiment [1] of 60 nM. Compared with the last molecule, the Ki is about 38-fold lower.

In experiment [1], `CCC(=O)[C@@H]1CN(C(=O)OC)C[C@H]1c1ccc(OC)c(OC2CCCC2)c1` had a Ki of 350 nM.

In turn, `COC(=O)[C@@H]1CN(C(=O)OC(C)C)C[C@H]1c1ccc(OC)c(OC2CCCC2)c1` gave a Ki in experiment [1] of 40 nM.

`COc1ccc([C@@H]2CN(C(=O)OCc3ccccc3)C[C@H]2NC(=O)OC(C)(C)C)cc1OC1CCCC1`: in experiment [1], the Ki was 290 nM.

As to `COc1ccc([C@@H]2CN(C(=O)OCc3ccccc3)C[C@H]2NS(C)(=O)=O)cc1OC1CCCC1`, affinity in experiment [1] was put at a Ki of 1470 nM.

For the molecule `COC(=O)N1C[C@@H](C(=O)OC(C)(C)C)[C@H](c2ccc(OC)c(OC3CCCC3)c2)C1`, in experiment [1], the Ki worked out at 4630 nM.

Regarding `COC(=O)[C@@H]1CN(C=O)C[C@H]1c1ccc(OC)c(OC2CCCC2)c1`, the Ki in experiment [1] was 810 nM.

The molecule `COc1ccc([C@@H]2CN(C(=O)OCc3ccccc3)C[C@H]2NS(=O)(=O)c2ccccc2)cc1OC1CCCC1` came in with a Ki in experiment [1] of 4420 nM.

The term IC50 denotes the concentration that inhibits the measured activity by half. A lower IC50 goes with greater potency in that assay. For `COC(=O)N1C[C@@H](C(C)=O)[C@H](c2ccc(OC)c(OC3CCCC3)c2)C1`, the IC50 worked out at 457 nM in experiment [2] and 320 nM in experiment [3]. Also, affinity in experiment [1] was put at a Ki of 30 nM.

Consider `COc1ccc([C@@H]2CN(C(=O)OC(C)(C)C)C[C@H]2C(=O)O)cc1OC1CCCC1`, for which the Ki in experiment [1] is 150 nM.

Take `COC(=O)[C@@H]1CN(C(=O)OC)C[C@H]1c1ccc(OC)c(OC2CCCC2)c1`: the affinity in experiment [1], expressed as Ki, was 160 nM.

On to `COC(=O)[C@@H]1CN(C(=O)OCc2ccccc2)C[C@H]1c1ccc(OC)c(OC2CCCC2)c1`, for which the Ki in experiment [1] stood at 50 nM.

With `COc1ccc(C2CNC(=O)C2)cc1OC1CCCC1` (configuration not stated) [ROLIPRAM], in experiment [2], the IC50 came to 320 nM. This counts as sub-micromolar.

Molecule `CCOC(=O)[C@@H]1CN(C(=O)OC)C[C@H]1c1ccc(OC)c(OC2CCCC2)c1` registered an inhibition constant (Ki) in experiment [1] of 550 nM.

`COc1ccc([C@@H]2CN(C(=O)OC(C)(C)C)C[C@H]2CO)cc1OC1CCCC1`: the Ki in experiment [1] turned out to be 50 nM.

The molecule `COC(=O)N1C[C@@H](C(=O)O)[C@H](c2ccc(OC)c(OC3CCCC3)c2)C1` displayed a Ki in experiment [1] of 1880 nM.

Turning to `COC(=O)[C@@H]1CN(C(=O)OC(C)(C)C)C[C@H]1c1ccc(OC)c(OCCCOc2ccccc2)c1`, in experiment [1], the Ki is 240 nM.

Regarding `COC(=O)[C@@H]1CN(C(=O)OC(C)(C)C)C[C@H]1c1ccc(OC)c(OC2CCCC2)c1`, the Ki in experiment [1] was found to be 30 nM.

In the case of `COC(=O)[C@@H]1CN(C(N)=O)C[C@H]1c1ccc(OC)c(OC2CCCC2)c1`, the Ki in experiment [1] was 1480 nM.

For the molecule `CCC(=O)N1C[C@@H](C(=O)OC)[C@H](c2ccc(OC)c(OC3CCCC3)c2)C1`, the Ki in experiment [1] worked out at 1130 nM.

`COC(=O)[C@@H]1CN(C(=O)OC(C)(C)C)C[C@H]1c1ccc(OC)c(OC)c1` had a Ki in experiment [1] of 1200 nM.

As for `COC(=O)N1C[C@@H](NC(=O)OC(C)(C)C)[C@H](c2ccc(OC)c(OC3CCCC3)c2)C1`, in experiment [1], the Ki turned out to be 14400 nM.

Take `COC(=O)N1C[C@@H](C(N)=O)[C@H](c2ccc(OC)c(OC3CCCC3)c2)C1`: in experiment [1], the affinity corresponds to a Ki of 1570 nM.

Take `COc1ccc([C@@H]2CN(C(=O)OC(C)(C)C)C[C@H]2NC(=O)OC(C)(C)C)cc1OC1CCCC1`: in experiment [1], the Ki was 1570 nM.

`COC(=O)[C@@H]1CN(C(N)=S)C[C@H]1c1ccc(OC)c(OC2CCCC2)c1` had a Ki in experiment [1] of 380 nM.

Molecule `COc1ccc([C@@H]2CN(C(=O)OC(C)(C)C)C[C@H]2C(N)=O)cc1OC1CCCC1` showed a Ki in experiment [1] of 190 nM.

Molecule `COC(=O)N1C[C@@H](C(=O)c2ccccc2)[C@H](c2ccc(OC)c(OC3CCCC3)c2)C1` displayed a Ki in experiment [1] of 6030 nM.

`COC[C@@H]1CN(C(=O)OC(C)(C)C)C[C@H]1c1ccc(OC)c(OC2CCCC2)c1` gave a Ki in experiment [1] of 80 nM.
